Assays:
wild oat = experiment: Test E wild oat; assay type: in vivo, Avena fatua; conditions: Preemergence; for Plant response rating, Wild oat: 0 to 100 scale where 0 is no effect and 100 is complete control
Italian ryegrass = experiment: Test E Italian ryegrass; assay type: in vivo, Lolium multiflorum; conditions: Preemergence
sugar beet = experiment: Test B pre/postemergence sugar beet; assay type: in vivo, Beta vulgaris
Outline: (§1)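 Herbicidal effect was estimated by eye on a ten-point control scale after plants spent twelve to sixteen days in a greenhouse following soil or foliar treatment. Foliar sprays targeted plants at one to four leaves; all doses were formulated in a non-phytotoxic solvent with surfactant.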

winter wheat [1] = experiment: Test E winter wheat; assay type: in vivo, Triticum aestivum; conditions: Preemergence
green foxtail = experiment: Test E green foxtail; assay type: in vivo, Setaria viridis; conditions: Preemergence
blackgrass = experiment: Test E blackgrass; assay type: in vivo, Alopecurus myosuroides; conditions: Preemergence
winter barley = experiment: Test E winter barley; assay type: in vivo, Hordeum vulgare; conditions: Preemergence
cocklebur = experiment: Test B pre/postemergence cocklebur; assay type: in vivo, Xanthium strumarium
Outline: as §1

winter wheat [2] = experiment: Test E winter wheat; assay type: in vivo, Triticum aestivum; conditions: Postemergence
Procedure: […] All plant species were grown using normal greenhouse practices. Crop and weed species include annual bluegrass (Poa annua), blackgrass (Alopecurus myosuroides), black nightshade (Solanum nigra), chickweed (Stellaria media), common poppy (Papaver rhoeas), deadnettle (Lamium amplexicaule), downy brome (Bromus tectorum), field violet (Viola arvensis), galium (Galium aparine), green foxtail (Setaria viridis), Italian ryegrass (Lolium multiflorum), jointed goatgrass (Aegilops cylindrica), kochia (Kochia scoparia), lambsquarters (Chenopodium album), littleseed canarygrass (Phalaris minor), rape (Brassica napus), redroot pigweed (Amaranthus retroflexus), Russian thistle (Salsola kali), scentless chamomile (Matricaria inodora), spring barley (Hordeum vulgare), sugar beet (Beta vulgaris), sunflower (Helianthus annuus), ivyleaf speedwell (Veronica hederaefolia), spring wheat (Triticum aestivum), winter wheat (Triticum aestivum), wild buckwheat (Polygonum convolvulus), wild mustard (Sinapis arvensis), wild oat (Avena fatua), windgrass (Apera spica-venti) and winter barley (Hordeum vulgare).
Treated plants and untreated controls were maintained in a greenhouse for approximately 21 to 28 days, after which all treated plants were compared to untreated controls and visually evaluated. […] A dash response (-) means no test result.

[3] = Rate 500 g/ha, 0 to 100 scale where 0 is no effect and 100 is complete control
[4] = Rate 1000 g/ha, 0 to 100 scale where 0 is no effect and 100 is complete control
[5] = Postemergence, Rate 125 g/ha, scale of 0 to 10 where 0 is no effect and 10 is complete control
[6] = Preemergence, Rate 62 g/ha, scale of 0 to 10 where 0 is no effect and 10 is complete control
[7] = Preemergence, Rate 125 g/ha, 0 is no effect, 10 is complete control
[8] = Preemergence, Rate 250 g/ha, scale 0 to 10, 0 is no effect, 10 is complete control
[9] = Preemergence, Rate 500 g/ha, scale 0 to 10 (0 no effect, 10 complete control)
[10] = Rate 62 g/ha, Postemergence, scale of 0 to 10 where 0 is no effect and 10 is complete control
[11] = Rate 250 g/ha, Postemergence, scale 0 to 10, 0 is no effect, 10 is complete control
[12] = Rate 500 g/ha, Postemergence, scale 0 to 10
[13] = Rate 1000 g/ha, 0 to 100 scale, 0 is no effect and 100 is complete control
[14] = Rate 500 g/ha, 0 to 100 scale, 0 no effect, 100 complete control
[15] = Postemergence, Rate 62 g/ha, scale 0 to 10, 0 is no effect, 10 is complete control
[16] = Postemergence, Rate 250 g/ha, scale 0 to 10, 0 no effect, 10 complete control
[17] = Preemergence, Rate 62 g/ha, scale 0 to 10, 0 is no effect, 10 is complete control
[18] = Preemergence, Rate 125 g/ha, scale 0 to 10 (0 no effect, 10 complete control)
[19] = Preemergence, Rate 250 g/ha, scale of 0 to 10 where 0 is no effect and 10 is complete control
[20] = Preemergence, Rate 500 g/ha, scale 0 (no effect) to 10 (complete control)
[21] = Rate 125 g/ha, Postemergence, scale 0 to 10, 0 no effect, 10 complete control

`CC1CCCCC1n1c(=O)on(C(=O)N(c2ccccc2)C(C)C)c1=O` (stereo not drawn) [Compound 162] was tested, and the “Wild oat plant response rating (0 to 100 scale)” value (wild oat; Rate 250 g/ha) was 50, the “Plant response rating, Wild oat” value (wild oat; Rate 500 g/ha) was 50 and the “Plant response rating, Wild oat” value (wild oat; Rate 1000 g/ha) was 60. The “I. Ryegrass plant response rating (0 to 100 scale)” value (Italian ryegrass; Rate 250 g/ha) was 50, the “Plant response rating, I. Ryegrass” value (Italian ryegrass; [3]) was 65 and the “Plant response rating, I. Ryegrass” value (Italian ryegrass; [4]) was 70. The “Sugarbeets plant response rating” value (sugar beet; [5]) was 0, the “Sugarbeets plant response rating” value (sugar beet; [6]) was 0 and the “Sugarbeets plant response rating (0 to 10 scale)” value (sugar beet; [7]) was 0. The “Sugarbeets plant response rating” value (sugar beet; [8]) was 0, the “Sugarbeets plant response rating” value (sugar beet; [9]) was 0 and the “Sugarbeets plant response rating” value (sugar beet; [10]) was 0. The “Plant response rating, Sugarbeets” value (sugar beet; [11]) was 0, the “Sugarbeets plant response rating” value (sugar beet; [12]) was 0 and the “Wheat (winter) plant response rating (0 to 100 scale)” value (winter wheat [1]; Rate 250 g/ha) was 30. For the same compound, the “Plant response rating, Wheat (winter)” value (winter wheat [1]; [3]) was 15, the “Plant response rating, Wheat (winter)” value (winter wheat [1]; [4]) was 40 and the “Green foxtail plant response rating (0 to 100 scale)” value (green foxtail; Rate 250 g/ha) was 60. For the same compound, the “Plant response rating, Green foxtail” value (green foxtail; [3]) was 65, the “Plant response rating, Green foxtail” value (green foxtail; [4]) was 85 and the “Blackgrass plant response rating (0 to 100 scale)” value (blackgrass; Rate 250 g/ha) was 55. For the same compound, the “Plant response rating, Blackgrass” value (blackgrass; [3]) was 60, the “Plant response rating, Blackgrass” value (blackgrass; [4]) was 55 and the “Barley (winter) plant response rating (0 to 100 scale)” value (winter barley; Rate 250 g/ha) was 30. The “Plant response rating, Barley (winter)” value (winter barley; [3]) was 30, the “Plant response rating, Barley (winter)” value (winter barley; [4]) was 40 and the “Cocklebur plant response rating” value (cocklebur; [5]) was 0. The “Cocklebur plant response rating” value (cocklebur; [6]) was 0, the “Cocklebur plant response rating (0 to 10 scale)” value (cocklebur; [7]) was 0 and the “Cocklebur plant response rating” value (cocklebur; [8]) was 0. The “Cocklebur plant response rating” value (cocklebur; [9]) was 0, the “Cocklebur plant response rating” value (cocklebur; [10]) was 0 and the “Plant response rating, Cocklebur” value (cocklebur; [11]) was 0. For the same compound, the “Cocklebur plant response rating” value (cocklebur; [12]) was 2, the “Plant response rating, Wheat (winter)” value (winter wheat [2]; [13]) was 50 and the “Plant response rating, Wheat (winter)” value (winter wheat [2]; [14]) was 40. For the same compound, the “Wheat (winter) plant response rating” value (winter wheat [2]; Rate 250 g/ha, 0 to 100 scale where 0 is no effect and 100 is complete control) was 30.
`Cc1ccc(N(C(=O)n2oc(=O)n(-c3ccccc3C)c2=O)C(C)C)cc1` [Compound 40] was tested, and the “Plant response rating, Wild oat” value (wild oat; Rate 500 g/ha) was 50, the “Plant response rating, Wild oat” value (wild oat; Rate 1000 g/ha) was 60 and the “Plant response rating, I. Ryegrass” value (Italian ryegrass; Rate 250 g/ha, 0 to 100 scale) was 30. The “Plant response rating, I. Ryegrass” value (Italian ryegrass; [3]) was 70, the “Plant response rating, I. Ryegrass” value (Italian ryegrass; [4]) was 70 and the “Sugarbeets plant response rating” value (sugar beet; [15]) was 0. For the same compound, the “Sugarbeets plant response rating” value (sugar beet; [16]) was 2, the “Plant response rating, Sugarbeets” value (sugar beet; [17]) was 0 and the “Plant response rating, Sugarbeets” value (sugar beet; [18]) was 0. For the same compound, the “Plant response rating, Sugarbeets” value (sugar beet; [19]) was 0, the “Sugarbeets plant response rating” value (sugar beet; [20]) was 6 and the “Sugarbeets plant response rating” value (sugar beet; [21]) was 0. For the same compound, the “Plant response rating, Wheat (winter)” value (winter wheat [1]; Rate 250 g/ha, 0 to 100 scale) was 20, the “Plant response rating, Wheat (winter)” value (winter wheat [1]; [3]) was 30 and the “Plant response rating, Wheat (winter)” value (winter wheat [1]; [4]) was 40. The “Plant response rating, Green foxtail” value (green foxtail; Rate 250 g/ha, 0 to 100 scale) was 70, the “Plant response rating, Green foxtail” value (green foxtail; [3]) was 90 and the “Plant response rating, Green foxtail” value (green foxtail; [4]) was 90. For the same compound, the “Plant response rating, Blackgrass” value (blackgrass; Rate 250 g/ha, 0 to 100 scale) was 40, the “Plant response rating, Blackgrass” value (blackgrass; [3]) was 60 and the “Plant response rating, Blackgrass” value (blackgrass; [4]) was 70. The “Plant response rating, Barley (winter)” value (winter barley; Rate 250 g/ha, 0 to 100 scale) was 30, the “Plant response rating, Barley (winter)” value (winter barley; [3]) was 40 and the “Plant response rating, Barley (winter)” value (winter barley; [4]) was 50. For the same compound, the “Cocklebur plant response rating” value (cocklebur; [15]) was 0, the “Cocklebur plant response rating” value (cocklebur; [16]) was 0 and the “Plant response rating, Cocklebur” value (cocklebur; [17]) was 0. For the same compound, the “Plant response rating, Cocklebur” value (cocklebur; [18]) was 0, the “Plant response rating, Cocklebur” value (cocklebur; [19]) was 0 and the “Cocklebur plant response rating” value (cocklebur; [20]) was 0. For the same compound, the “Cocklebur plant response rating” value (cocklebur; [21]) was 0, the “Cocklebur plant response rating” value (cocklebur; Rate 500 g/ha, Postemergence, 0 to 10 scale (0 no effect, 10 complete control)) was 0 and the “Plant response rating, Wheat (winter)” value (winter wheat [2]; Rate 250 g/ha, 0 to 100 scale (0 no effect, 100 complete control)) was 0. The “Plant response rating, Wheat (winter)” value (winter wheat [2]; [13]) was 0 and the “Plant response rating, Wheat (winter)” value (winter wheat [2]; [14]) was 0.

— US6737383B1, “Herbicidal oxadiazolidines” (priority 1999, dated 2004)
